# Laboratory results reported in the NIST ThermoML archive (doi:10.1007/s10765-006-0051-4).
# ± gives the expanded uncertainty stated by the source.
# Assay: xn = mol fraction of the nth substance listed
# Settings: Gas, Oscillating disk viscometry
smiles,measurement,setting,value
FC(F)C(F)(F)F [pentafluoroethane] + CCC,viscosity,"348.15 K, 592.5 kPa, x1 = 0.5011",0.01307 ± 0.00046 mPa·s
same,viscosity,"348.15 K, 750.8 kPa, x1 = 0.7503",0.01427 ± 0.00049 mPa·s
same,viscosity,"348.15 K, 784.8 kPa, x1 = 0.5011",0.01316 ± 0.00046 mPa·s
same,viscosity,"348.15 K, 978.4 kPa, x1 = 0.7503",0.01432 ± 0.00049 mPa·s
same,viscosity,"348.15 K, 986 kPa, x1 = 0.5011",0.01318 ± 0.00046 mPa·s
same,viscosity,"348.15 K, 1173.8 kPa, x1 = 0.7503",0.01443 ± 0.00049 mPa·s
same,viscosity,"348.15 K, 1178.4 kPa, x1 = 0.5011",0.01326 ± 0.00046 mPa·s
same,viscosity,"348.15 K, 1374.6 kPa, x1 = 0.5011",0.01335 ± 0.00046 mPa·s
same,viscosity,"348.15 K, 1374.7 kPa, x1 = 0.7503",0.01455 ± 0.00049 mPa·s
same,viscosity,"348.15 K, 1565.7 kPa, x1 = 0.7503",0.01468 ± 0.0005 mPa·s
same,viscosity,"348.15 K, 1571.2 kPa, x1 = 0.5011",0.0135 ± 0.00047 mPa·s
same,viscosity,"348.15 K, 1770.2 kPa, x1 = 0.7503",0.01482 ± 0.0005 mPa·s
same,viscosity,"348.15 K, 1772.3 kPa, x1 = 0.5011",0.01362 ± 0.00047 mPa·s
same,viscosity,"348.15 K, 1960.9 kPa, x1 = 0.5011",0.01374 ± 0.00047 mPa·s
same,viscosity,"348.15 K, 1963.9 kPa, x1 = 0.7503",0.01499 ± 0.0005 mPa·s
same,viscosity,"348.15 K, 2130.4 kPa, x1 = 0.7503",0.01511 ± 0.00051 mPa·s
same,viscosity,"348.15 K, 2139.9 kPa, x1 = 0.5011",0.01387 ± 0.00048 mPa·s
same,viscosity,"348.15 K, 2297.9 kPa, x1 = 0.5011",0.01404 ± 0.00048 mPa·s
same,viscosity,"348.15 K, 2335.5 kPa, x1 = 0.7503",0.01538 ± 0.00051 mPa·s
same,viscosity,"348.15 K, 2492.4 kPa, x1 = 0.7503",0.01555 ± 0.00052 mPa·s
same,viscosity,"348.15 K, 2501 kPa, x1 = 0.5011",0.0143 ± 0.00049 mPa·s
same,viscosity,"348.15 K, 2660.6 kPa, x1 = 0.7503",0.01583 ± 0.00052 mPa·s
same,viscosity,"348.15 K, 2695.6 kPa, x1 = 0.5011",0.01451 ± 0.00049 mPa·s
same,viscosity,"348.15 K, 2804.7 kPa, x1 = 0.7503",0.01604 ± 0.00053 mPa·s
same,viscosity,"348.15 K, 2928.8 kPa, x1 = 0.7503",0.01629 ± 0.00053 mPa·s
same,viscosity,"348.15 K, 2932.5 kPa, x1 = 0.5011",0.01494 ± 0.0005 mPa·s
same,viscosity,"348.15 K, 3079.4 kPa, x1 = 0.7503",0.01666 ± 0.00054 mPa·s
same,viscosity,"348.15 K, 3111.7 kPa, x1 = 0.5011",0.01524 ± 0.00051 mPa·s
same,viscosity,"348.15 K, 3230.6 kPa, x1 = 0.7503",0.01697 ± 0.00055 mPa·s
same,viscosity,"348.15 K, 3383.2 kPa, x1 = 0.7503",0.01739 ± 0.00056 mPa·s
same,viscosity,"373.15 K, 101 kPa, x1 = 0.7503",0.01505 ± 0.00051 mPa·s
same,viscosity,"373.15 K, 101.5 kPa, x1 = 0.5011",0.01376 ± 0.00047 mPa·s
same,viscosity,"373.15 K, 220 kPa, x1 = 0.7503",0.01506 ± 0.00051 mPa·s
same,viscosity,"373.15 K, 225.5 kPa, x1 = 0.5011",0.01381 ± 0.00048 mPa·s
same,viscosity,"373.15 K, 389.7 kPa, x1 = 0.7503",0.0151 ± 0.00051 mPa·s
same,viscosity,"373.15 K, 397.7 kPa, x1 = 0.5011",0.01383 ± 0.00048 mPa·s
same,viscosity,"373.15 K, 585.6 kPa, x1 = 0.5011",0.01386 ± 0.00048 mPa·s
same,viscosity,"373.15 K, 637.7 kPa, x1 = 0.7503",0.01515 ± 0.00051 mPa·s
same,viscosity,"373.15 K, 781.4 kPa, x1 = 0.5011",0.01393 ± 0.00048 mPa·s
same,viscosity,"373.15 K, 877.8 kPa, x1 = 0.7503",0.01525 ± 0.00051 mPa·s
same,viscosity,"373.15 K, 980.5 kPa, x1 = 0.5011",0.01401 ± 0.00048 mPa·s
same,viscosity,"373.15 K, 1141.8 kPa, x1 = 0.7503",0.01537 ± 0.00051 mPa·s
same,viscosity,"373.15 K, 1174.2 kPa, x1 = 0.5011",0.01407 ± 0.00048 mPa·s
same,viscosity,"373.15 K, 1370.5 kPa, x1 = 0.5011",0.01413 ± 0.00048 mPa·s
same,viscosity,"373.15 K, 1477.4 kPa, x1 = 0.7503",0.01552 ± 0.00052 mPa·s
same,viscosity,"373.15 K, 1560.4 kPa, x1 = 0.5011",0.01422 ± 0.00049 mPa·s
same,viscosity,"373.15 K, 1717 kPa, x1 = 0.7503",0.01566 ± 0.00052 mPa·s
same,viscosity,"373.15 K, 1753.9 kPa, x1 = 0.5011",0.01434 ± 0.00049 mPa·s
same,viscosity,"373.15 K, 1949.4 kPa, x1 = 0.5011",0.01447 ± 0.00049 mPa·s
same,viscosity,"373.15 K, 1961.1 kPa, x1 = 0.7503",0.01583 ± 0.00052 mPa·s
same,viscosity,"373.15 K, 2125.3 kPa, x1 = 0.5011",0.01458 ± 0.00049 mPa·s
same,viscosity,"373.15 K, 2185.2 kPa, x1 = 0.7503",0.01605 ± 0.00053 mPa·s
same,viscosity,"373.15 K, 2318.9 kPa, x1 = 0.5011",0.01469 ± 0.0005 mPa·s
same,viscosity,"373.15 K, 2415.9 kPa, x1 = 0.7503",0.01623 ± 0.00053 mPa·s
same,viscosity,"373.15 K, 2508.1 kPa, x1 = 0.5011",0.01487 ± 0.0005 mPa·s
same,viscosity,"373.15 K, 2631.2 kPa, x1 = 0.7503",0.01641 ± 0.00054 mPa·s
same,viscosity,"373.15 K, 2708.4 kPa, x1 = 0.5011",0.01508 ± 0.00051 mPa·s
same,viscosity,"373.15 K, 2950.3 kPa, x1 = 0.7503",0.01679 ± 0.00055 mPa·s
same,viscosity,"373.15 K, 2961.4 kPa, x1 = 0.5011",0.01536 ± 0.00051 mPa·s
same,viscosity,"373.15 K, 3209.9 kPa, x1 = 0.7503",0.01714 ± 0.00055 mPa·s
same,viscosity,"373.15 K, 3217 kPa, x1 = 0.5011",0.01568 ± 0.00052 mPa·s
same,viscosity,"373.15 K, 3421.2 kPa, x1 = 0.7503",0.01749 ± 0.00056 mPa·s
